1 compound from patent US20190380965A1 (priority 2018, published 2019) can be followed below.

The data set is classed as physicochemical. Conditions: for drug dissolved in water: 500 mg flucytosine added to 10 mL water. The protocol: The powder and granule pharmaceutical compositions of the present invention dissolve or suspend when added to water quickly. This pharmaceutical composition is therefore termed as “quick water-dispersing”. The term “quick” herein is defined as less than 2 to 3 minutes when shaken gently. In other words, when the granules are added to water, and gently mixed, a suspension is formed in less than 2 to 3 minutes. The “quick water-dispersing” property was achieved by selecting a correct particle size of suspending agent(s) which is the novelty of this invention. The suspension is achieved by simple mixing of powder in water—without use of complex instruments which are available in the home-environment to patients. […] After reaching the gastro-intestinal tract, the remaining drug dissolves. The pharmaceutical compositions according to the present invention provide for an immediate release of the Flucytosine from the dosage form.
USP II apparatus were used and UV-visible spectrometer was used for quantification of Flucytosine from dissolution. […] When we combine other antifungal agents in this formulation, the dissolved fraction of flucytosine will change.

Structures are written as SMILES. Where two headings read alike, the source gives them in different places.

Consider `Nc1nc(=O)[nH]cc1F` [Flucytosine, 5-fluorocytosine], for which the “drug dissolved in water” value was “about 150 mg”. For the same compound, the “drug dissolved in water” value (listed as flucytosine) is given as 150 mg. Also, for the setting “dose of 500 mg flucytosine”, the “water needed to dissolve the drug” value amounted to 33.3 mL.
